The record followed here is ChEMBL document CHEMBL6177966, “Sclerotiorin-Type Azaphilones Isolated from a Marine-Derived Fungus Microsphaeropsis arundinis P1B” (J Nat Prod, 2025).

In data set [1] the test system is RAW264.7. In words: Anti-inflammatory activity in LPS-induced mouse RAW264.7 cells assessed as inhibition of NO production. The class given is functional, cell-based.
In data set [2] the test system is RAW264.7. In words: Effect on P38 phosphorylation in LPS-induced mouse RAW264.7 cells at 5 to 40 uM pre-incubated with compound for 1 hr followed by LPS induction and measured after 10 mins by Western blot analysis. The class given is functional, cell-based. As to conditions: dose 5-40 µM. On the technique in general: A western blot detects proteins with antibodies after separation by electrophoresis.

Data set [3] relates to RAW264.7. In words: Inhibition of MAPK signalling pathway in LPS-induced mouse RAW264.7 cells assessed as downregulation of ERK1/2 phosphorylation pre-incubated with compound for 1 hr followed by LPS induction and measured after 10 mins by Western blot analysis. It is filed as cell-based. As to conditions: dose 5-40 µM.
The test system of data set [4] is RAW264.7. Kind of data set: Anti-inflammatory activity in LPS-induced mouse RAW264.7 cells assessed as downregulation of TNF-alpha mRNA transcription at 10 to 40 uM pre-incubated with compound for 1 hr followed by LPS induction and measured after 6 hrs by qRT-PCR analysis. The class given is functional, cell-based. As to conditions: dose 10-40 µM.
In data set [5] the test system is RAW264.7. In words: Anti-inflammatory activity in LPS-induced mouse RAW264.7 cells assessed as reduction in COX-2 level pre-incubated with compound for 1 hr followed by LPS induction and measured after 6 hrs by Western blot analysis. The class given is functional, cell-based. Conditions: dose 5-40 µM.
The subject of data set [6] is RAW264.7. In words: Anti-inflammatory activity in LPS-induced mouse RAW264.7 cells assessed as reduction in iNOS level pre-incubated with compound for 1 hr followed by LPS induction and measured after 6 hrs by Western blot analysis. The class given is functional, cell-based. Conditions: dose 5-40 µM.
The test system of data set [7] is RAW264.7. Kind of data set: Anti-inflammatory activity in LPS-induced mouse RAW264.7 cells assessed as inhibition of NO production incubated for 24 hrs by Griess reagent based microplate reader analysis. It is filed as functional, cell-based. Conditions: RAW264.7, 24 h.
For data set [8], the system named is RAW264.7. In words: Anti-inflammatory activity in LPS-induced mouse RAW264.7 cells assessed as downregulation of iNOS mRNA transcription at 10 to 40 uM pre-incubated with compound for 1 hr followed by LPS induction and measured after 6 hrs by qRT-PCR analysis. The class given is functional, cell-based. Conditions: dose 10-40 µM. In general terms: Real-time PCR tracks product formation cycle by cycle.

Data set [9] relates to RAW264.7. In words: Effect on JNK phosphorylation in LPS-induced mouse RAW264.7 cells at 5 to 40 uM pre-incubated with compound for 1 hr followed by LPS induction and measured after 10 mins by Western blot analysis. It is filed as functional, cell-based. As to conditions: dose 5-40 µM.
Data set [10] has as its system RAW264.7. In words: Anti-inflammatory activity in LPS-induced mouse RAW264.7 cells assessed as downregulation of IL-6 mRNA transcription at 10 to 40 uM pre-incubated with compound for 1 hr followed by LPS induction and measured after 6 hrs by qRT-PCR analysis. As to conditions: dose 10-40 µM. The class given is functional, cell-based.
Data set [11] has as its system RAW264.7. Kind of data set: Cytotoxicity against mouse RAW264.7 cells assessed as cell viability at 20 to 40 uM incubated for 24 hrs by CCK8 assay. The class given is toxicity, cell-based. As to conditions: raw264.7, 24 h, dose 20-40 µM. In general terms: Tetrazolium assays rely on reduction of a dye to a coloured formazan, in cell work by metabolically active cells.

Activity calls are given as the source filed them. The calls are words filed in the database; no cut-off is given here.

Broadly, the IC50 is the midpoint of a concentration-inhibition curve. With `O=c1c(O)c(-c2ccc(O)c(O)c2)oc2cc(O)cc(O)c12` [QUERCETIN], the half-maximal inhibitory concentration (IC50) with RAW264.7 [1] is 15.3 µM. Turning to `C[C@H]1CC(=O)O[C@@H]1[C@](C)(O)/C=C/C1=CC2=CC(=O)[C@](C)(O)[C@@H](O)[C@@H]2CO1`, the result in the data set on RAW264.7 [2] and with RAW264.7 [9] was inactive. In the data set with RAW264.7 [3], the inhibition result was “Dose-dependent-effect”. The outcome in the data set on RAW264.7 [4], in the data set on RAW264.7 [8] and with RAW264.7 [10] was Active. For the same compound, the Activity result in the data set on RAW264.7 [5] is “Dose-dependent-effect”; in the data set with RAW264.7 [6] it was “Dose-dependent-effect”; in the data set on RAW264.7 [11], “Non-toxic”. Also, in the data set on RAW264.7 [7], the IC50 came out at 16.7 µM.

On to `C[C@H]1CC(=O)O[C@@H]1[C@](C)(O)/C=C/C1=CC2=CC(=O)[C@](C)(O)[C@@H](O)[C@H]2CO1`, for which the Activity result in the data set on RAW264.7 [11] is “Non-toxic”. As to `C[C@H]1CC(=O)O[C@@H]1[C@@](C)(O)/C=C/C1=CC2=C(Cl)C(=O)[C@](C)(O)[C@H](O)[C@@H]2CO1`, the Activity entry in the data set on RAW264.7 [11] is on record as “Non-toxic”. Consider `C[C@H]1CC(=O)O[C@@H]1[C@@](C)(O)/C=C/C1=CC2=CC(=O)[C@](C)(O)[C@@H](O)C2=CO1`, for which the Activity entry in the data set with RAW264.7 [11] is listed as “Non-toxic”.

Consider `C[C@H]1CC(=O)O[C@@H]1[C@](C)(O)/C=C/C1=CC2=C(Cl)C(=O)[C@](C)(O)[C@H](O)[C@@H]2CO1`, for which, in the data set with RAW264.7 [11], the Activity result was “Non-toxic”.

With `C[C@H]1CC(=O)O[C@@H]1[C@@](C)(O)/C=C/C1=CC2=CC(=O)[C@](C)(O)[C@@H](O)[C@@H]2CO1`, the Activity result with RAW264.7 [11] is “Non-toxic”.

In the case of `C[C@H]1CCO[C@@H]1[C@](C)(O)/C=C/C1=CC2=CC(=O)[C@](C)(O)[C@@H](O)[C@@H]2CO1`, the Activity result with RAW264.7 [11] is recorded as “Non-toxic”. Still for that read-out and setting: the entry for `C[C@H]1CCO[C@@H]1[C@](C)(O)/C=C/C1=CC2=CC(=O)[C@](C)(O)[C@@H](O)[C@]2(O)CO1` is “Non-toxic”; for `C[C@H]1CC(=O)O[C@@H]1[C@](C)(O)/C=C/C1=CC2=CC(=O)[C@](C)(O)[C@@H](O)C2=CO1` it is “Non-toxic”; for `C[C@H]1CC(=O)O[C@@H]1[C@@](C)(O)/C=C/C1=CC2=CC(=O)[C@](C)(O)[C@@H](O)[C@H]2CO1` it is “Non-toxic”. Still for that read-out and setting: the entry for `C[C@H]1CCO[C@@H]1[C@@](C)(O)/C=C/C1=CC2=CC(=O)[C@](C)(O)[C@@H](O)[C@@H]2CO1` is “Non-toxic”; for `C[C@H]1CCO[C@@H]1[C@@](C)(O)/C=C/C1=CC2=CC(=O)[C@](C)(O)[C@@H](O)[C@]2(O)CO1` it is “Non-toxic”.
